Reference: patent publication US8097620B2, “Diazaquinolones that inhibit prolyl hydroxylase activity” (Amgen Inc., priority 2007, dated 2012)

Target: HIF PHD2 (Homo sapiens, UniProt Q9GZT9)
Assay: PHD2 inhibition assay (TR-FRET, VCB-Eu detection of hydroxylated P564-HIF1α peptide)
Type: biochemical
Details: 2 nM PHD2, 100 nM P564-HIF1α peptide, 0.25 μM 2-oxoglutarate, 100 μM FeCl2, 2 mM ascorbic acid, pH 6
Protocol: Inhibition of HIF PHD2 activity was quantified utilizing the TR-FRET technology. HIF PHD2 catalyzes a hydroxyl modification on the proline residue of the P564-HIF1α peptide substrate (Biotin-[…] (SEQ ID NO: 7)) resulting in recognition and binding of the europylated Von Hippel-Lindau protein (pVHL), elongin B and elongin C heterotrimeric (VCB-Eu) complex.
The PHD2 inhibition assay was executed by addition of freshly dissolved FeCl2 to 178.57 μM (100 μM final concentration) in PHD2 Reaction Buffer containing 30 mM MES, pH 6, 10 mM NaCl, 0.25% Brij-35, 0.01% BSA, and 1% DMSO. 28 μL of the iron solution and 2 μL of inhibitor compounds serially diluted in 100% DMSO (5% DMSO final) were added to black polypropylene 96-well microtiter plates. To that, 10 μL of 10 nM PHD2 (2 nM final) was added to all wells of the plate except for the 8 wells of column 12 (LO control), and allowed to incubate at room temperature on the shaker for one hour. Column 6 was the HI control containing PHD2 enzyme and 5% DMSO vehicle, but no inhibitor compound. To initiate the PHD2 enzymatic reaction, 10 μL of a solution containing 500 nM P564-HIF1α peptide (100 nM final), 10 mM ascorbic acid (2 mM final), and 1.25 μM 2-oxoglutarate (α-ketoglutarate; 0.25 μM final) in PHD2 Reaction Buffer was added to all wells of the plate and allowed to incubate on the shaker at room temperature for one hour.
The reaction was terminated by addition of 25 μL TR-FRET Buffer (50 mM TRIS-HCl, pH 9, 100 mM NaCl, 0.05% BSA, and 0.5% Tween-20) containing 150 mM succinate (product inhibitor; 50 mM final), 75 nM streptavidin-APC (25 nM final), and 7.5 nM VCB-Eu (2.5 nM final). The TR-FRET detection reagents were placed on a shaker for 1 hour to reach binding equilibrium before reading on the Discovery platform (PerkinElmer). Europium is excited at 315 nm and phosphoresces at 615 nm with a large Stoke's shift. APC, in turn, emits at 655 nm upon excitation at 615 nm. The TR-FRET signal is measured as the ratio of the APC 655 nm signal divided by the internal europium reference 615 nm emission signal.
The POC (percentage of control) was determined by comparing the signal from hydroxylated peptide substrate in the enzyme reaction containing inhibitor compound with that from PHD2 enzyme with DMSO vehicle alone (HI control), and no enzyme (LO control). POC was calculated using the formula: % control (POC)=(cpd−average LO)/(average HI−average LO)*100. Data (consisting of POC and inhibitor concentration in μM) was fitted to a 4-parameter equation (y=A+((B−A)/(1+((x/C)^D))), where A is the minimum y (POC) value, B is the maximum y (POC), C is the x (cpd concentration) at the point of inflection and D is the slope factor) using a Levenburg-Marquardt non-linear regression algorithm.

HIF PHD2, sequence (Q9GZT9 whole entry): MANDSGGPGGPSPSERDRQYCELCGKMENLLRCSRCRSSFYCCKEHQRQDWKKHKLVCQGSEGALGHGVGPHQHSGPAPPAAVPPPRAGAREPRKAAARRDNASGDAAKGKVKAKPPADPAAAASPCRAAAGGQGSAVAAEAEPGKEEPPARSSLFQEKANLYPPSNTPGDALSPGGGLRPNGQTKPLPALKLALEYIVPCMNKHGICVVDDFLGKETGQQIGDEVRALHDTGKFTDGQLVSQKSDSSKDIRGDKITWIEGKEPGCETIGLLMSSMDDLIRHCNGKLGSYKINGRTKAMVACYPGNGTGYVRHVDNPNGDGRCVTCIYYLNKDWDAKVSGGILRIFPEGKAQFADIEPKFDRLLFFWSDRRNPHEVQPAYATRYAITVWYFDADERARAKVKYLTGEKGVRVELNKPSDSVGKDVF

| IC50 [nM] | SMILES |
| --- | --- |
| 16 | Cn1c(=O)c(C(=O)NCC(=O)O)c(O)c2cnc(N3CCCCC3)nc21 [Example 11, 2-(5-hydroxy-8-methyl-7-oxo-2-(piperidin-1-yl)-7,8-dihydropyrido[2,3-d]pyrimidine-6-carboxamido)acetic acid] |
| 18 | COc1ncc2c(O)c(C(=O)NCC(=O)O)c(=O)n(C)c2n1 [Example 12, 2-(5-hydroxy-2-methoxy-8-methyl-7-oxo-7,8-dihydropyrido[2,3-d]pyrimidine-6-carboxamido)acetic acid] |
| 240 | Cn1c(=O)c(C(=O)NCC(=O)O)c(O)c2cnc(N3CCOCC3)nc21 [Example 13, 2-(5-hydroxy-8-methyl-2-morpholino-7-oxo-7,8-dihydropyrido[2,3-d]pyrimidine-6-carboxamido)acetic acid] |
| 7.35 | Cn1c(=O)c(C(=O)NCC(=O)O)c(O)c2cnc(N3CCCC3)nc21 [Example 15, 2-(5-hydroxy-8-methyl-7-oxo-2-(pyrrolidin-1-yl)-7,8-dihydropyrido[2,3-d]pyrimidine-6-carboxamido)acetic acid] |
| 8.8 | Cn1c(=O)c(C(=O)NCC(=O)O)c(O)c2ncc(-c3ccccc3)nc21 [Example 18, 2-(8-hydroxy-5-methyl-6-oxo-3-phenyl-5,6-dihydropyrido[3,2-b]pyrazine-7-carboxamido)acetic acid] |
| 2.9 | Cn1c(=O)c(C(=O)NCC(=O)O)c(O)c2cnc(-c3cccc(F)c3)nc21 [Example 22, 2-(2-(3-fluorophenyl)-5-hydroxy-8-methyl-7-oxo-7,8-dihydropyrido[2,3-d]pyrimidine-6-carboxamido)acetic acid] |
| 4.3 | Cn1c(=O)c(C(=O)NCC(=O)O)c(O)c2cnc(-c3ccccc3)nc21 [Example 25, 2-(5-hydroxy-8-methyl-7-oxo-2-phenyl-7,8-dihydropyrido[2,3-d]pyrimidine-6-carboxamido)acetic acid] |
| 1.5 | Cn1c(=O)c(C(=O)NCC(=O)O)c(O)c2cnc(-c3ccccc3F)nc21 [Example 26, 2-(2-(2-fluorophenyl)-5-hydroxy-8-methyl-7-oxo-7,8-dihydropyrido[2,3-d]pyrimidine-6-carboxamido)acetic acid] |
| 2.3 | Cn1c(=O)c(C(=O)NCC(=O)O)c(O)c2cnc(-c3ccc(F)cc3)nc21 [Example 27, 2-(2-(4-fluorophenyl)-5-hydroxy-8-methyl-7-oxo-7,8-dihydropyrido[2,3-d]pyrimidine-6-carboxamido)acetic acid] |
| 2.9 | Cn1c(=O)c(C(=O)NCC(=O)O)c(O)c2cnc(-c3ccccc3N3CCOCC3)nc21 [Example 28, 2-(5-hydroxy-8-methyl-2-(2-morpholinophenyl)-7-oxo-7,8-dihydropyrido[2,3-d]pyrimidine-6-carboxamido)acetic acid] |
| 3.7 | Cn1c(=O)c(C(=O)NCC(=O)O)c(O)c2cnc(-c3ccc(N4CCOCC4)cc3)nc21 [Example 29, 2-(5-hydroxy-8-methyl-2-(4-morpholinophenyl)-7-oxo-7,8-dihydropyrido[2,3-d]pyrimidine-6-carboxamido)acetic acid] |

More lines, now with the values behind:

| SMILES | IC50 [nM] |
| --- | --- |
| Cn1c(=O)c(C(=O)NCC(=O)O)c(O)c2cc(Cl)nnc21 [Example 1, 2-(3-chloro-5-hydroxy-8-methyl-7-oxo-7,8-dihydropyrido[2,3-c]pyridazine-6-carboxamido)acetic acid] | 24 |
| Cn1c(=O)c(C(=O)NCC(=O)O)c(O)c2cc(-c3ccccc3)nnc21 [Example 2, 2-(5-hydroxy-8-methyl-7-oxo-3-phenyl-7,8-dihydropyrido[2,3-c]pyridazine-6-carboxamido)acetic acid] | 17 |
| Cn1c(=O)c(C(=O)NCC(=O)O)c(O)c2cc(-c3cccs3)nnc21 [Example 3, 2-(5-hydroxy-8-methyl-7-oxo-3-(thiophen-2-yl)-7,8-dihydropyrido[2,3-c]pyridazine-6-carboxamido)acetic acid] | 22 |
| Cn1c(=O)c(C(=O)NCC(=O)O)c(O)c2cc(C3=CCCC3)nnc21 [Example 4, 2-(3-cyclopentenyl-5-hydroxy-8-methyl-7-oxo-7,8-dihydropyrido[2,3-c]pyridazine-6-carboxamido)acetic acid] | 17 |
| Cn1c(=O)c(C(=O)NCC(=O)O)c(O)c2cc(C3CCCC3)nnc21 [Example 5, 2-(3-cyclopentyl-5-hydroxy-8-methyl-7-oxo-7,8-dihydropyrido[2,3-c]pyridazine-6-carboxamido)acetic acid] | 8.8 |
| Cn1c(=O)c(C(=O)NCC(=O)O)c(O)c2cc(C3=CCCCC3)nnc21 [Example 6, 2-(3-cyclohexenyl-5-hydroxy-8-methyl-7-oxo-7,8-dihydropyrido[2,3-c]pyridazine-6-carboxamido)acetic acid] | 16 |
| CC(C)Oc1cccc(-c2cc3c(O)c(C(=O)NCC(=O)O)c(=O)n(C)c3nn2)c1 [Example 7, 2-(5-hydroxy-3-(3-isopropoxyphenyl)-8-methyl-7-oxo-7,8-dihydropyrido[2,3-c]pyridazine-6-carboxamido)acetic acid] | 26 |
| CC(C)Oc1ccc(-c2cc3c(O)c(C(=O)NCC(=O)O)c(=O)n(C)c3nn2)cc1 [Example 8, 2-(5-hydroxy-3-(4-isopropoxyphenyl)-8-methyl-7-oxo-7,8-dihydropyrido[2,3-c]pyridazine-6-carboxamido)acetic acid] | 21 |
| CC(C)Oc1ccccc1-c1cc2c(O)c(C(=O)NCC(=O)O)c(=O)n(C)c2nn1 [Example 9, 2-(5-hydroxy-3-(2-isopropoxyphenyl)-8-methyl-7-oxo-7,8-dihydropyrido[2,3-c]pyridazine-6-carboxamido)acetic acid] | 14 |
| CSc1ncc2c(O)c(C(=O)NCC(=O)O)c(=O)n(C)c2n1 [Example 10, 2-(5-hydroxy-8-methyl-2-(methylthio)-7-oxo-7,8-dihydropyrido[2,3-d]pyrimidine-6-carboxamido)acetic acid] | 25 |
| Cn1c(=O)c(C(=O)NCC(=O)O)c(O)c2cnc(C(F)(F)F)nc21 [Example 14, 2-(5-hydroxy-8-methyl-7-oxo-2-(trifluoromethyl)-7,8-dihydropyrido[2,3-d]pyrimidine-6-carboxamido)acetic acid] | 6.9 |
| CC1CCCCN1c1ncc2c(O)c(C(=O)NCC(=O)O)c(=O)n(C)c2n1 (stereo not shown) [Example 16, 2-(5-hydroxy-8-methyl-2-(2-methylpiperidin-1-yl)-7-oxo-7,8-dihydropyrido[2,3-d]pyrimidine-6-carboxamido)acetic acid] | 52.5 |
| CCC1CCCCN1c1ncc2c(O)c(C(=O)NCC(=O)O)c(=O)n(C)c2n1 (stereo not shown) [Example 19, 2-(2-(2-ethylpiperidin-1-yl)-5-hydroxy-8-methyl-7-oxo-7,8-dihydropyrido[2,3-d]pyrimidine-6-carboxamido)acetic acid] | 71 |
| CCC1CCC(C)N(c2ncc3c(O)c(C(=O)NCC(=O)O)c(=O)n(C)c3n2)C1 (stereo not shown) [Example 20, 2-(2-(5-ethyl-2-methylpiperidin-1-yl)-5-hydroxy-8-methyl-7-oxo-7,8-dihydropyrido[2,3-d]pyrimidine-6-carboxamido)acetic acid] | 175 |
| Cn1c(=O)c(C(=O)NCC(=O)O)c(O)c2cnc(N3CCCC4CCCCC43)nc21 (stereo not shown) [Example 21, 2-(5-hydroxy-8-methyl-2-(octahydroquinolin-1(2H)-yl)-7-oxo-7,8-dihydropyrido[2,3-d]pyrimidine-6-carboxamido)acetic acid] | 152 |
| Cn1c(=O)c(C(=O)NCC(=O)O)c(O)c2cnc(C#CC3CC3)nc21 [Example 23, 2-(2-(2-cyclopropylethynyl)-5-hydroxy-8-methyl-7-oxo-7,8-dihydropyrido[2,3-d]pyrimidine-6-carboxamido)acetic acid] | 12 |
| Cn1c(=O)c(C(=O)NCC(=O)O)c(O)c2cnc(C3CC3)nc21 [Example 24, 2-(2-cyclopropyl-5-hydroxy-8-methyl-7-oxo-7,8-dihydropyrido[2,3-d]pyrimidine-6-carboxamido)acetic acid] | 3.9 |
